The results in this text go back to patent publication US12358915B2, “METTL3 inhibitory compounds” (STORM THERAPEUTICS LTD., priority 2019, dated 2025).

Molecules are shown by their SMILES. Counter-ions that a name gives are not always drawn. Like-named read-outs stand apart in the source and are kept apart here.

Test [1] has as its system MOLM-13 cells. The test is described as follows: MOLM13 CTG - analysis of cell proliferation (Cell Titre Glo). It is filed as cell-based. Particulars: Homo sapiens, geometric mean, read-out: CTG MOLM13 cells IC50 GEOMEAN.
Test [2] has as its target T1, METTL3/14 (Homo sapiens, UniProt Q86U44).
T1 construct: The enzyme used was full-length his-tagged METTL3; His; made in house
The test is described as follows: METTL3/14 methyltransferase assay (METTL3_14 RFMS, RapidFire mass spectrometry).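 Note: recombinant His-tagged METTL3 with FLAG-tagged METTL14 from baculovirus, SAH product quantified by mass spectrometry against isotope-labelled internal standards, 60 min at room temperature, scaled between no-RNA and DMSO-only wells.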 It is filed as biochemical. Particulars: read-out: METTL3_14 RFMS IC50.

Where [3] appears, read: 5 nM METTL3/14, 0.2 μM RNA substrate, 0.5 μM SAM, lower limit of the assay IC50=5 nM, Compounds 266-351.
The mark [4] stands for this setting: 5 nM METTL3/14, 0.2 μM RNA substrate, 0.5 μM SAM, lower limit of the assay IC50=5 nM, Compounds 63-265.

T1 sequence (Q86U44 whole entry): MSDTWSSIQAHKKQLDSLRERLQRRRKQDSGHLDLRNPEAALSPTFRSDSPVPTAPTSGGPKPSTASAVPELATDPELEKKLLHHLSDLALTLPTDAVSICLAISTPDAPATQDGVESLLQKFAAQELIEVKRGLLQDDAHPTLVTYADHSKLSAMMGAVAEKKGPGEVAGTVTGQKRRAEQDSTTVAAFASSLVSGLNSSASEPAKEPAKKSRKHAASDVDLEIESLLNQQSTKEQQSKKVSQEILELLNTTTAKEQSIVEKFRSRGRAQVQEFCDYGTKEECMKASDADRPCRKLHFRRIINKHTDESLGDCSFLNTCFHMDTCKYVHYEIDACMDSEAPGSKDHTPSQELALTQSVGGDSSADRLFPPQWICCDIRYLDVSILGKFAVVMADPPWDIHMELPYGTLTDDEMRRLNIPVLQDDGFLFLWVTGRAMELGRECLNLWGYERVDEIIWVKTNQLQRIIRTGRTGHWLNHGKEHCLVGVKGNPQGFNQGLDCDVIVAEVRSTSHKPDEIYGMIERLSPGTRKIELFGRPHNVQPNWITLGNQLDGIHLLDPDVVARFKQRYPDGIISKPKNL
T1 sequence (Q9HCE5 whole entry partner): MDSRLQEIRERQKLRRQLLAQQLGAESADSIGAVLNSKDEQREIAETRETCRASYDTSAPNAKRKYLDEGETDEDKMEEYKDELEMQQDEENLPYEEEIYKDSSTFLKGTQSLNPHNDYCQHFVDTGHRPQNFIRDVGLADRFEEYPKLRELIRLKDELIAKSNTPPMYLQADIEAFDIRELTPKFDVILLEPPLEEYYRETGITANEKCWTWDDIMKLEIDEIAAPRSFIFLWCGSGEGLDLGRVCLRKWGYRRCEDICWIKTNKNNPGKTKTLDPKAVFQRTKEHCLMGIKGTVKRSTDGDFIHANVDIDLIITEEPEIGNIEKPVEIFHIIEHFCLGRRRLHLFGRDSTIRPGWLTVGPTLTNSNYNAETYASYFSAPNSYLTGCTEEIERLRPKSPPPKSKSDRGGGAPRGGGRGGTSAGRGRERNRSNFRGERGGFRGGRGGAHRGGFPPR

Regarding `O=C1CC(c2ccc3nc(CNC(=O)c4cc(=O)n5ccccc5n4)cn3c2)NC(C2CCCCC2)C1` (mixture of isomers) [Example 334, N-[[6-(6-cyclohexyl-4-oxo-2-piperidyl)imidazo[1,2-a]pyridin-2-yl]methyl]-4-oxo-pyrido[1,2-a]pyrimidine-2-carboxamide], the half-inhibitory concentration (IC50) in test [1] stood at 17900 nM; in test [2] (setting [3]), 122 nM. Regarding `O=C(NCc1cn2cc(CNCC3CCCCC3)ccc2n1)c1cc(=O)n2ccccc2n1` [Compound 72, N-[(6-{[(cyclohexyl-methyl)amino]methyl}imidazo [1,2-a]pyridin-2-yl)methyl]-4-oxo-4H-pyrido [1,2-a]pyrimidine-2-carboxamide], the IC50 in test [1] was 8700 nM. Regarding `CN(Cc1ccccc1)Cc1ccc2nc(CNC(=O)c3cc(=O)n4ccccc4n3)cn2c1` [Compound 74, N-[(6-{[benzyl (methyl)amino]methyl}imidazo [1,2-a]pyridin-2-yl)methyl]-4-oxo-4H-pyrido [1,2-a]pyrimidine-2-carboxamide], the IC50 is not below 30000 nM in test [1] and 122 nM in test [2] (setting [4]). In the case of `O=Cc1ccc2nc(CNC(=O)c3cc(=O)n4ccccc4n3)cn2c1` [Example 49, N-[(6-formylimidazo[1,2-a]pyridin-2-yl)methyl]-4-oxo-pyrido[1,2-a]pyrimidine-2-carboxamide], the IC50 in test [2] (5 nM METTL3/14, 0.2 μM RNA substrate, 0.5 μM SAM, lower limit of the assay IC50=5 nM, Compounds 1-62) was 1040 nM. On to `CC1(C)CCN(Cc2ccc3nc(Cn4cc(-c5cc(Br)cc6[nH]ncc56)nn4)cn3c2)CC1` [Example 227, 6-bromo-4-[1-({6-[(4,4-dimethylpiperidin-1-yl)methyl]imidazo[1,2-a]pyridin-2-yl}methyl)-1H-1,2,3-triazol-4-yl]-1H-indazole], for which the IC50 in test [2] (setting [4]) turned out to be 7.9 nM. Consider `CC(C)(C)[C@H]1COC[C@@H](c2ccc3nc(CNC(=O)c4cc(=O)n5ccccc5n4)cn3c2)N1` [Example 228, N-({6-[(3R,5S)-5-tert-butylmorpholin-3-yl]imidazo[1,2-a]pyridin-2-yl}methyl)-4-oxo-4H-pyrido[1,2-a]pyrimidine-2-carboxamide], for which the IC50 in test [2] (setting [4]) is 239 nM. Take `CC(C)(C)[C@@H]1COC[C@H](c2ccc3nc(CNC(=O)c4cc(=O)n5ccccc5n4)cn3c2)N1` [Example 229, N-({6-[(3S,5R)-5-tert-butylmorpholin-3-yl]imidazo[1,2-a]pyridin-2-yl}methyl)-4-oxo-4H-pyrido[1,2-a]pyrimidine-2-carboxamide]: the concentration for half-maximal inhibition (IC50) in test [2] (setting [4]) was 100 nM. In the case of `O=C(NCc1cn2cc([C@H]3COC[C@@H](C4CCCCC4)N3)ccc2n1)c1cc(=O)n2ccccc2n1` [Example 230, N-({6-[(3S,5R)-5-cyclohexylmorpholin-3-yl]imidazo[1,2-a]pyridin-2-yl}methyl)-4-oxo-4H-pyrido[1,2-a]pyrimidine-2-carboxamide], in test [2] (setting [4]), the IC50 was 81.3 nM. Same read-out and setting: the same measure for `CC(C)(C)CN1CCOCC1c1ccc2nc(CNC(=O)c3cc(=O)n4ccccc4n3)cn2c1` (stereo not shown) [Example 232, N-({6-[4-(2,2-dimethylpropyl)morpholin-3-yl]imidazo[1,2-a]pyridin-2-yl}methyl)-4-oxo-4H-pyrido[1,2-a]pyrimidine-2-carboxamide]: 8370 nM; for `C[C@@H]1COC[C@H](c2ccc3nc(CNC(=O)c4cc(=O)n5ccccc5n4)cn3c2)N1` [Example 233, N-({6-[(3S,5R)-5-methylmorpholin-3-yl]imidazo[1,2-a]pyridin-2-yl}methyl)-4-oxo-4H-pyrido[1,2-a]pyrimidine-2-carboxamide]: 1390 nM.

As for `COc1cccc2c1OCC(c1ccc3nc(CNC(=O)c4cc(=O)n5ccccc5n4)cn3c1)NC2` (stereo not shown) [Example 234, N-{[6-(9-methoxy-2,3,4,5-tetrahydro-1,4-benzoxazepin-3-yl)imidazo[1,2-a]pyridin-2-yl]methyl}-4-oxo-4H-pyrido[1,2-a]pyrimidine-2-carboxamide], in test [2] (setting [4]), the IC50 turned out to be 3440 nM. For `O=C(NCC1CCCCC1)c1ccc2nc(Cn3cc(-c4cccc5[nH]ncc45)nn3)cn2c1` [Example 249, N-(cyclohexylmethyl)-2-{[4-(1H-indazol-4-yl)-1H-1,2,3-triazol-1-yl]methyl}imidazo[1,2-a]pyridine-6-carboxamide], the IC50 in test [2] (setting [4]) is 229 nM. In the case of `CC(C)(C)CNCc1ccc2nc(Cn3cc(-c4cncc5[nH]ncc45)nn3)cn2c1` [Example 256, (2,2-dimethylpropyl)({2-[(4-{1H-pyrazolo[3,4-c]pyridin-4-yl}-1H-1,2,3-triazol-1-yl)methyl]imidazo[1,2-a]pyridin-6-yl}methyl)amine], in test [2] (setting [4]), the 50% inhibitory concentration (IC50) was found to be 246 nM. On to `OCc1ccc2nc(Cn3cc(-c4cncc5[nH]ncc45)nn3)cn2c1` [Example 257, {2-[(4-{1H-pyrazolo[3,4-c]pyridin-4-yl}-1H-1,2,3-triazol-1-yl)methyl]imidazo[1,2-a]pyridin-6-yl}methanol], for which the half-maximal inhibitory concentration (IC50) in test [2] (setting [4]) worked out at 4440 nM.

Take `O=C(NCc1cn2cc([C@H]3COC[C@@H](C4CCCCC4)N3)ccc2n1)c1cc(=O)c2ccccc2o1` [Example 264, N-({6-[(3S,5R)-5-cyclohexylmorpholin-3-yl]imidazo[1,2-a]pyridin-2-yl}methyl)-4-oxo-4H-chromene-2-carboxamide]: the IC50 in test [2] (setting [4]) is 195 nM. Take `Cc1ccc2nc(Cn3cc(-c4cccc5[nH]nc(N)c45)nn3)cn2c1` [Example 272, 4-[1-[(6-methylimidazo[1,2-a]pyridin-2-yl)methyl]triazol-4-yl]-1H-indazol-3-amine]: in test [2] (setting [3]), the half-maximal inhibitory concentration (IC50) stood at 9020 nM. Take `O=C(NCCO)c1cc(-c2cn(Cc3cn4cc(CNCC5CCC5)ccc4n3)nn2)c2cn[nH]c2c1` [Example 301]: in test [2] (setting [3]), the IC50 is 233 nM. Consider `CC(C)(C)CNCc1ccc2nc(Cn3cc(-c4cc(Cl)cc5[nH]ncc45)nn3)cn2c1` [Example 304, N-[[2-[[4-(6-chloro-1H-indazol-4-yl)triazol-1-yl]methyl]imidazo[1,2-a]pyridin-6-yl]methyl]-2,2-dimethyl-propan-1-amine], for which, in test [2] (setting [3]), the IC50 was 6.1 nM. For `NC1(CNCc2ccc3nc(Cn4cc(-c5ccc(F)c6[nH]ncc56)nn4)cn3c2)CCCC1` [Example 309, 1-[[[2-[[4-(7-fluoro-1H-indazol-4-yl)triazol-1-yl]methyl]imidazo[1,2-a]pyridin-6-yl]methylamino]methyl]cyclopentanamine], the IC50 in test [2] (setting [3]) came to 120 nM.

Consider `CC1(C)CCN(Cc2ccc3nc(CNC(=O)c4cc(=O)c5c(F)cccc5o4)cn3c2)CC1` [Example 310, N-[[6-[(4,4-dimethyl-1-piperidyl)methyl]imidazo[1,2-a]pyridin-2-yl]methyl]-5-fluoro-4-oxo-chromene-2-carboxamide], for which the 50% inhibitory concentration (IC50) in test [2] (setting [3]) is 186 nM. Turning to `CC1(C)CCN(Cc2ccc3nc(CNC(=O)c4cc(OCCOCCN)cc5[nH]ncc45)cn3c2)CC1` [Example 312, 6-[2-(2-aminoethoxy)ethoxy]-N-[[6-[(4,4-dimethyl-1-piperidyl)methyl]imidazo[1,2-a]pyridin-2-yl]methyl]-1H-indazole-4-carboxamide trihydrochloride], the IC50 in test [2] (setting [3]) amounted to 52.1 nM. Regarding `O=C(NCc1cn2cc(C(Cc3ccccc3)N(CC3CCC3)CC3CCC3)ccc2n1)c1cc(=O)n2ccccc2n1` (stereo not shown) [Example 314], in test [2], the half-maximal inhibitory concentration (IC50) turned out to be 7110 nM. Regarding `OCc1ccc2nc(Cn3cc(-c4cc(F)cc5[nH]ncc45)nn3)cn2c1` [Example 317, [2-[[4-(6-fluoro-1H-indazol-4-yl)triazol-1-yl]methyl]imidazo[1,2-a]pyridin-6-yl]methanol], the IC50 in test [2] (setting [3]) amounted to 462 nM.

Regarding `CC(C)(C)CNCc1ccc2nc(Cn3cc(-c4cc(C5CC5)cc5[nH]ncc45)nn3)cn2c1` [Example 321, N-[[2-[[4-(6-cyclopropyl-1H-indazol-4-yl)triazol-1-yl]methyl]imidazo[1,2-a]pyridin-6-yl]methyl]-2,2-dimethyl-propan-1-amine], the IC50 in test [2] (setting [3]) turned out to be 13.2 nM. As to `Cc1ccc2nc(Cn3cnc(-c4cccc5[nH]ncc45)c3)cn2c1` [Example 329, 2-[[4-(1H-indazol-4-yl)imidazol-1-yl]methyl]-6-methyl-imidazo[1,2-a]pyridine formate], the IC50 in test [2] (setting [3]) was 1640 nM. Turning to `CC1CNC(c2ccc3nc(CNC(=O)c4cc(=O)n5ccccc5n4)cn3c2)CO1` (stereo not shown) [Example 331], the IC50 in test [2] (setting [3]) came out at 3440 nM. On to `COc1cc(Br)cc2c1OCC(c1ccc3nc(CNC(=O)c4cc(=O)n5ccccc5n4)cn3c1)NC2` (stereo not shown) [Example 332], for which, in test [2] (setting [3]), the half-inhibitory concentration (IC50) is 1700 nM. Regarding `O=C(NCc1cn2cc(C3CNCCN3)ccc2n1)c1cc(=O)n2ccccc2n1` (stereo not shown) [Example 333, 4-oxo-N-[(6-piperazin-2-ylimidazo[1,2-a]pyridin-2-yl)methyl]pyrido[1,2-a]pyrimidine-2-carboxamide], the half-inhibitory concentration (IC50) in test [2] (setting [3]) worked out at 1230 nM.

`Cc1ccc2nc(C(C)(O)c3cnc(-c4cccc5[nH]ncc45)s3)cn2c1` (stereo not shown) [Example 335, 1-[2-(1H-indazol-4-yl)thiazol-5-yl]-1-(6-methylimidazo[1,2-a]pyridin-2-yl)ethanol]: the IC50 in test [2] (setting [3]) amounted to 7290 nM. On the same count and under the same terms, the same measure for `c1cc(-n2cc(Cc3cn4ccccc4n3)nn2)c2cn[nH]c2c1` [Example 336, 4-(4-(imidazo[1,2-a]pyridin-2-ylmethyl)-1H-1,2,3-triazol-1-yl)-1H-indazole]: 4160 nM; for `CC(=O)N(Cc1ccc2nc(CNC(=O)c3cc(=O)n4ccccc4n3)cn2c1)CC1CCC1` [Example 340, N-[(6-{[N-(cyclobutylmethyl)acetamido]methyl}imidazo[1,2-a]pyridin-2-yl)methyl]-4-oxo-4H-pyrido[1,2-a]pyrimidine-2-carboxamide]: 6810 nM; for `c1cc(-c2ncn(Cc3cn4cc(CNCC5CCC5)ccc4n3)n2)c2cn[nH]c2c1` [Example 341, N-(cyclobutylmethyl)-1-[2-[[3-(1H-indazol-4-yl)-1,2,4-triazol-1-yl]methyl]imidazo[1,2-a]pyridin-6-yl]methanamine]: 64.4 nM.

In general, IC50 refers to the concentration that inhibits the measured activity by half.
